Measured values reported in patent US9963485B2, “Cycloheptapeptide agents for treatment of cancer and obesity diseases” (Hong Kong Baptist University, priority 2012, dated 2018).
Like-named read-outs stand apart in the source and are kept apart here. *1 amine or outer side, *2 acyl side, *3 side chain or, on linkers, in order; H or OH if unused. Where a SMILES comes first, the peptide text is derived from it. [ ]: non-standard residue; d: D form. X3 = CC1C(C)C1C(N[*:1])C(=O)[*:2]; dGly(cPr) = N[C@@H](C(=O)O)C1CC1; Gly(cPr) = N[C@H](C(=O)O)C1CC1; NMeL = CN[CH](CC(C)C)C(=O)O; NMeA = CN[CH](C)C(=O)O; dNMeA = CN[C@H](C)C(=O)O

How the values were obtained:
[1] = system: oral epidermoid (KB) carcinoma cell line; assay: Cytotoxicity assay (sulforhodamine B), KB; assay type: cell-based, human; conditions: KB cells; for IC50: 72 hours, read-out: Cytotoxic activity IC50, KB
Procedure: (§4) Pure compounds are evaluated against the human cancer cell lines comprising our cytotoxicity screening panel. Cytotoxicity assays involving oral epidermoid (KB), colon (HCT116), prostate (LNCaP), breast (MCF7), Hela (cervical), leukemia (HL-60) melanoma (A375) and lung (A549) carcinoma cell lines, are performed using sulforhodamine B according to established protocols (Zhang et al., Journal of Medicinal Chemistry 2006; 49: 693-708; and Jutiviboonsuk A et al., Phytochemistry 2005; 66: 2745-2751.). KB and A375 cells are maintained in DMEM (Dulbecco's modified Eagle medium) medium. LNCaP and HL60 cells are maintained in RPMI1640 medium with hormone-free 10% heat-activated FBS (fetal bovine serum) supplemented with 0.1 nM testosterone. MCF7 and Hela cells are maintained and assayed in MEME (Minimum Essential Medium Eagle) medium containing 10 mg/L of insulin. HCT116 cells are maintained in McCoy's 5A medium supplemented with 10% fetal bovine serum. A549 cells are maintained in RPMI-1640 medium supplemented with 10% FCS. Serial dilutions of the compounds are prepared using 10% aqueous DMSO as solvent. The 190 μL cell suspension (3×10^4 cells in 1 ml media) is incubated with 10 μL sample solutions, in triplicate, in 96-well tissue culture plate at 37° C. in a humidified atmosphere of 5% CO2 in air for 72 hours. 10 μL 10% aqueous DMSO is used as control group. Then the cells are fixed to plastic substratum by the addition of 100 μL cold 20% aqueous trichloroacetic acid and washing with water after incubation at 4° C. for 30 min. After staining cells with 100 μL of 0.4% sulforhodamine B in 1% aqueous AcOH for 30 min, unbound dye is removed by rinsing with 1% aqueous AcOH. The bound dye is solubilized with 200 μL 10 mM unbuffered Tris base, pH 10, and the optical density is measured at 515 nm using an ELISA plate reader. The average data are expressed as a percentage, relative to the control. The IC50 values, the dose that inhibit cell growth by 50%, are calculated using nonlinear regression analysis (percent survival versus concentration).

[2] = system: prostate (LNCaP) carcinoma cell line; assay: cells; assay type: cell-based, human; conditions: 72 hours, read-out: Cytotoxic activity IC50, LNCaP
Procedure: as §4

[3] = system: lung (A549) carcinoma cell line; assay: cells; assay type: cell-based, human; conditions: for IC50: 72 hours, read-out: Cytotoxic activity IC50, A549; for IC90: read-out: Cytotoxic activity IC90, A549
Procedure: as §4

[4] = system: breast (MCF7) carcinoma cell line; assay: cells; assay type: cell-based, human; conditions: for IC50: 72 hours, read-out: Cytotoxic activity IC50, MCF7; for IC90: read-out: Cytotoxic activity IC90, MCF7
Procedure: as §4

[5] = system: murine P388 leukemia cells; conditions: at a concentration of 10 ng/mL
[6] = Body weight of mice after drug treatment; conditions: for Drop of average weight of mice after the first treatment: i.p. injection; for Drop of average weight of mice after six treatments: twice a week
[7] = system: colon (HCT116) carcinoma cell line; assay: Cytotoxicity assay (sulforhodamine B), HCT116; conditions: for IC50: read-out: Cytotoxic activity IC50, HCT116
Procedure: as §4

[8] = system: 3T3-L1 murine adipocytes; assay: 3T3-L1 fat accumulation (triglyceride) assay; assay type: cell-based; conditions: differentiated 3T3-L1 adipocytes, 7 days, read-out: Anti-obesity activity (fat accumulation) EC50
Procedure: (§1) MV-A, MV-B, MV-C and MV-D are evaluated for their anti-obesity effects in 3T3-L1 murine adipocytes. 3T3-L1 cells are cultured in the presence of insulin to induce adipocyte differentiation.
(§2) Pure compounds are evaluated against 3T3-L1 cell line for their potential anti-obesity activity. […] After the cells reach 100% confluence, the culture medium is changed to a differentiation DMEM medium containing 10% FCS, […], 0.5 mM 3-isobutyl-1-methylxanthine (IBMX), 90 U/mL penicillin, […] and 10 μg/mL insulin for induction of the adipocyte form of the 3T3-L1 cells. After 2 days, the differentiation medium is changed back to the normal DMEM medium and refreshed with the normal medium every 2 days. After incubation of additional 7 days, the cells are seeded in two sets of 96-well plates (about 10,000 cells per well). The test compounds in different concentrations are then added to the wells with 0.5% aqueous DMSO as control group. After incubation of 7 days, the differentiated 3T3-L1 adipocytes are treated with 2% Triton-X 100 ([…]) for 30 min at room temperature followed by sonication for 1 min. Fat accumulation is determined by measuring the liberated triglyceride using a Wato Triglyceride E-test Kit with the absorbance at 630/690 nm. The fat-accumulation rate is calculated as a percentage of the DMSO control. […] The cell viability of the differentiated 3T3-L1 adipocytes in another 96-well plate is treated with a Wako Cell Counting Kit-8 Test and measured with the absorbance at 450 nm. The cell viability is calculated as a percentage of the control.

[9] = system: 3T3-L1 murine adipocytes; assay: 3T3-L1 adipocyte cell viability; assay type: cell-based; conditions: differentiated 3T3-L1 adipocytes
Procedure: as §1, §2

[10] = system: panel of cancer cell lines comprising KB, HCT116, LNCaP, A549, MCF7, HL60, Hela and A375; conditions: at 2 μM
[11] = system: HIV (human immunodeficiency virus)
[12] = system: lung cancer cell line (A549); assay: Hollow fiber in vivo test, A549; design: species or system mouse; conditions: 2.0 mg/kg
Procedure: (§3) Hollow fiber tests are well known in the art for providing preliminary indications of therapeutic efficacy (Mi et al. J. Nat. Prod. 2002, 65: 842-850). In hollow fiber tests, human tumor cell lines currently employed in cell cultures are grown inside semipermeable hollow fibers to form heterogeneous solid tumor models. […] By evaluating the test compound's inhibition of tumor cell growth versus the toxic response in the host, a preliminary estimate of therapeutic efficacy is provided in a cost- and time effective manner.

[13] = system: colon cancer cell line (HCT116); assay: Hollow fiber in vivo test, HCT116; design: species or system mouse; conditions: 2.0 mg/kg
Procedure: as §3

[14] = system: breast cancer cell line (MCF7); assay: Hollow fiber in vivo test, MCF7; design: species or system mouse; conditions: 2.0 mg/kg
Procedure: as §3

[15] = system: melanoma cancer cell line (A375); assay: Hollow fiber in vivo test, A375; design: species or system mouse; conditions: 2.0 mg/kg
Procedure: as §3

[16] = system: cervical cancer cell line (Hela); assay: Hollow fiber in vivo test, Hela; design: species or system mouse; conditions: 2.0 mg/kg
Procedure: as §3

[17] = system: HCT116-tumor xenograft; assay: HCT116 xenograft mouse model; assay type: in vivo; conditions: 5 mg/kg, every other day for 21 days
Procedure: The treatment started on the 6th day when the HCT116-tumor reached approximately 100 mm^3 (L×W×W). […] All mice died for the maytansine group after the initial two treatments at the dose of 0.1 mg/kg, indicating the highly toxicity of maytansine.

[18] = system: MCF7-tumor xenograft; assay: MCF7 xenograft mouse model; conditions: 5 mg/kg, twice a week for 3 weeks
Procedure: The treatment started on the 12th day when the MCF7-tumor size reached approximately 100 mm^3 (L×W×H). Two doses of MV-A (1.0 and 2.0 mg/kg), paclitaxel (5 mg/kg), and vehicle were administered via i.p. (intraperitoneal), i.v. (intravenous), or oral respectively, to the tumor-bearing mice twice a week for 3 weeks ([…]).
Antitumor animal study. All animal studies were approved and performed according to Animal Care and Use Guidelines of the Animal Ethics Committee at Hong Kong Baptist University and performed following Animal Care and Use guidelines set by NIH (National Institute of Health, USA). BALB/c nude mice, SPF class, male or female, 5-6 weeks old, were purchased from Charles River Laboratories. Before the experiment, it is one week of acclimatization to SPF class laboratory conditions. MV-A is tested for its anticancer activity against HCT116 and MCF7 cancer cells using a number of nude mice (Balc/nu/nu, female) in comparison of paclitaxel and maytansine. HCT116 or MCF7 cancer cells are subcutaneously implanted with 5×10^6 cells in the rear flank of each mouse. Female mice receiving MCF-7 cells are implanted with an s.c. pellet of 17β-estradiol (0.72 mg/pellet) a few days prior to injection to induce tumors. […] The mice are divided into 5 groups for HCT116 cancer cells: one high dose (1.0 mg/kg: 10 mice) group of MV-A, one low dose (0.5 mg/kg: 10 mice) group of MV-A, one dose (5.0 mg/kg: 10 mice) of paclitaxel, one dose of maytansine (0.1 mg/kg) and one dose of vehicle (negative control: 10 mice). The mice are then divided into 4 groups for MCF7 cancer cells: one high dose (2.0 mg/kg: 10 mice) group of MV-A, one low dose (1.0 mg/kg: 10 mice) group of MV-A, one dose (5.0 mg/kg: 10 mice) of paclitaxel, and one dose of vehicle (negative control: 10 mice). Every other day administration via i.p. (intraperitoneal), i.v. (intravenous), or oral, respectively are scheduled for 21 days for the HCT116 groups. Twice a week injections administered via i.p. (intraperitoneal), i.v. (intravenous), or oral, respectively are scheduled for […] for the MCF7 groups. Weights of mice and tumor diameters are measured twice a week until the end of the experiment. The tumor size in mm^3 was calculated by the formula: tumor size=length×width×height (L×W×H).

[19] = system: 3T3-L1 murine adipocytes; conditions: literature (Shimokawa et al. 2006); cited from earlier work

## CC(C)CC1NC(=O)C(C)N(C)C(=O)C(C)N(C)C(=O)C(C2C(C)C2C)NC(=O)C(CC(C)C)N(C)C(=O)C(C)N(C)C(=O)C(C2C(C)C2C)NC1=O (centres unmarked) [Compound 1] (cyclo([X3][NMeA][NMeA]L[X3][NMeA][NMeL]); configuration not given here)
[1]
  Cytotoxic activity IC90, KB: 1.65 nM
  IC50: 0.05 nM
[2]
  IC50: 0.42 nM
[3]
  IC50: 0.24 nM
  IC90: 1.02 nM
[4]
  IC50: 0.26 nM
  IC90: 1.47 nM
[5]
  Inhibition of cell growth of murine P388 leukemia cells: 100%
[6]; 1 mg/kg and 2 mg/kg
  Mortality during the treatments: No mice die
  Toxicity observed from dissection of the mice: No sign of toxicity
[6]; 1 mg/kg
  Drop of average weight of mice after the first treatment: 1.5 g
  Drop of average weight of mice after six treatments: 1.7 g
[6]; 2 mg/kg
  Drop of average weight of mice after the first treatment: 2.2 g
  Drop of average weight of mice after six treatments: 4.7 g
[7]; HCT116 cells, 72 hours
  IC50: 0.25 nM
[7]; read-out: Cytotoxic activity IC90, HCT116, HCT116 cells
  IC90: 0.69 nM

## CC(C)CC1NC(=O)C(C)N(C)C(=O)C(C)N(C)C(=O)C(C2C(C)C2C)NC(=O)C(CC(C)CO)N(C)C(=O)C(C)N(C)C(=O)C(C2C(C)C2C)NC1=O (centres unmarked) [Compound 2]
[1]
  Cytotoxic activity IC90, KB: 11.4 nM
  IC50: 0.79 nM
[3]
  IC50: 6.35 nM
  IC90: 6.84 nM
[4]
  IC50: 5.83 nM
  IC90: 9.21 nM
[5]
  Inhibition of cell growth of murine P388 leukemia cells: 100%
[7]; HCT116 cells, 72 hours
  IC50: 2.62 nM

## CC(C)C[C@H]1NC(=O)[C@@H](C)N(C)C(=O)[C@H](C)N(C)C(=O)[C@H](C2CC2)NC(=O)[C@H](CC(C)C)N(C)C(=O)[C@H](C)N(C)C(=O)[C@@H](C2CC2)NC1=O [MV-D] (cyclo([Gly(cPr)][NMeA][dNMeA][dL][dGly(cPr)][NMeA][NMeL]))
[8]
  EC50: 13.3 nM
[9]
  IC50: > 5000 nM
[10]
  Inhibition activity against the cancer cells: no inhibition activity
[11]
  IC50: 1240 nM

## CC(=O)O[C@H]1C(=O)[C@@]2(C)[C@H]([C@H](OC(=O)c3ccccc3)[C@]3(O)C[C@H](OC(=O)[C@H](O)[C@@H](NC(=O)c4ccccc4)c4ccccc4)C(C)=C1C3(C)C)[C@]1(OC(C)=O)CO[C@@H]1C[C@@H]2O [Paclitaxel, reference compound]
[1]; Homo sapiens
  IC50: 3.38 nM
[1]
  Cytotoxic activity IC90, KB: >20 nM
[2]; Homo sapiens
  IC50: 15.9 nM
[3]; Homo sapiens
  IC50: 4.81 nM
  IC90: > 20 nM
[4]; Homo sapiens
  IC50: 3.24 nM
  IC90: > 30 nM
[12]; A549-IP
  Inhibition (%): 39.8%
[12]; A549-SC
  Inhibition (%): 0%
[13]; HCT116-IP
  Inhibition (%): 60.4%
[13]; HCT116-SC
  Inhibition (%): 0%
[14]; MCF7-IP
  Inhibition (%): 70.7%
[14]; MCF7-SC
  Inhibition (%): 0%
[15]; A375-IP
  Inhibition (%): 38.1%
[15]; A375-SC
  Inhibition (%): 7.8%
[16]; Hela-IP
  Inhibition (%): 69.5%
[16]; Hela-SC
  Inhibition (%): 11.1%
[17]
  Inhibition of HCT116 tumor growth (excised tumor weights): 37.6%
[18]
  Inhibition of MCF7 tumor growth (excised tumor weights): 28.2%
[7]; Homo sapiens, HCT-116, 72 h
  IC50: 5.78 nM
[7]; Homo sapiens, HCT-116, read-out: Cytotoxic activity IC90, HCT116
  IC90: > 20 nM

## Ternatin
[19]
  Inhibition of fat accumulation against 3T3-L1 murine adipocytes: potent inhibitor of fat accumulation
